From US9822130B2, “Triazolo-pyrazinyl derivatives useful as soluble guanylate cyclase activators” (Merck Sharp & Dohme Corp., priority 2014, dated 2017)

Biological target: T1, sGC α1/β1 heterodimer stably expressed in CHO-K1 cell line (CHO-K1/sGC) (Homo sapiens, UniProt Q02108+Q02153)
T1 construct: expressed in transfected cells
T1 sequence (Q02108 1-690): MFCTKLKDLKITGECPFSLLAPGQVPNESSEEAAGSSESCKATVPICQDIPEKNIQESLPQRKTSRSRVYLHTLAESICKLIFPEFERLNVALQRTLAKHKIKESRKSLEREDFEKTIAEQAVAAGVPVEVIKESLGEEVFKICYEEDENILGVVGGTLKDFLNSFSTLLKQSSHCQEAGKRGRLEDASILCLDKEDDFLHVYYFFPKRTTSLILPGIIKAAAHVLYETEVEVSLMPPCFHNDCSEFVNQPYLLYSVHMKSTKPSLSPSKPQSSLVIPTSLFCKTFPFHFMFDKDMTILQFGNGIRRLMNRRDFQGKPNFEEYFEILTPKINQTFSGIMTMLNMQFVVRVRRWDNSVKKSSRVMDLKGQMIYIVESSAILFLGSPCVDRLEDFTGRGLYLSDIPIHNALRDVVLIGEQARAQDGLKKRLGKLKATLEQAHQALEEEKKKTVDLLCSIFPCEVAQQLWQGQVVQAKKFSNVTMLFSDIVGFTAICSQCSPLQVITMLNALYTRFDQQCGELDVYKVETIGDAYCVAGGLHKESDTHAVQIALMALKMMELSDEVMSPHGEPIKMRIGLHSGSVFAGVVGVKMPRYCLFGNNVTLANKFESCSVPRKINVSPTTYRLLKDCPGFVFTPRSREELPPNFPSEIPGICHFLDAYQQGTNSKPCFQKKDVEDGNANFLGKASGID
T1 sequence (Q02153 1-619): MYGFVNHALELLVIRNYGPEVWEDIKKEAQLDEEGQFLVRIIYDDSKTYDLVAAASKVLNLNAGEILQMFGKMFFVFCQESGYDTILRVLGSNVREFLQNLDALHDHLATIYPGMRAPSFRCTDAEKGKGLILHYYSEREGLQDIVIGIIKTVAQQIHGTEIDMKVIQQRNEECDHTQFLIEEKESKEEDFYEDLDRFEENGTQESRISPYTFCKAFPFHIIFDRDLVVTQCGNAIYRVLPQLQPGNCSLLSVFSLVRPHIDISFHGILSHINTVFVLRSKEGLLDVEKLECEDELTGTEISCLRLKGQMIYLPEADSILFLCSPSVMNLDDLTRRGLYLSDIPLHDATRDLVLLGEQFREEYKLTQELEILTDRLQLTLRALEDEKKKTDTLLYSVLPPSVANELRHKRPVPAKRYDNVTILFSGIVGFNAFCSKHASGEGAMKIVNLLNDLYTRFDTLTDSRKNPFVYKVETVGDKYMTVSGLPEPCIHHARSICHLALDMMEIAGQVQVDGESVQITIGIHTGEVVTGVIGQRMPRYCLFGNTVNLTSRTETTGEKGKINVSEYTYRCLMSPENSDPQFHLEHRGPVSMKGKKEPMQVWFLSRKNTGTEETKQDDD
Experiment: Cell-based sGC Functional Assay (CASA Assay), cGMP generation
Details: CHO-K1/sGC cells, 1 hr at 37° C., cGMP by HTRF, 4P fit; presence or absence of 1 μM DETA-NO not given; read-out: IP (nM) (inflection point)
Outline: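 Readout is HTRF cGMP in lysates, normalised to the maximal response of reference sGC activator Compound A (100%), with a 4P fit giving IP and fold induction. Cells were CHO-K1/sGC (human α1/β1) in EBSS buffer with IBMX, incubated 1 hr at 37° C with compound. Run with and without 1 μM DETA-NO; final DMSO 2.5%.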

Row | Compound | EC50 [nM]
1 | Cc1nc2c(CCC(F)(F)C(F)(F)F)nc(-c3nc(N)c4c(n3)NC(=O)[C@@]4(C)c3ccc(F)cc3)cn2n1 [Example 88B, (S)-4-amino-5-(4-fluorophenyl)-5-methyl-2-(2-methyl-8-(3,3,4,4,4-pentafluorobutyl)-[1,2,4]triazolo[1,5-a]pyrazin-6-yl)-5H-pyrrolo[2,3-d]pyrimidin-6(7H)-one] | 65
2 | CC1(c2ccc(Cl)cn2)C(=O)Nc2nc(-c3cn4ncnc4c(CCC(F)(F)C(F)(F)F)n3)nc(O)c21 (stereo not drawn) [Example 120A, 5-(5-chloropyridin-2-yl)-4-hydroxy-5-methyl-2-(8-(3,3,4,4,4-pentafluorobutyl)-[1,2,4]triazolo[1,5-a]pyrazin-6-yl)-5H-pyrrolo[2,3-d]pyrimidin-6(7H)-one] | 155
3 | CC1(c2ccc(C(F)F)cn2)C(=O)Nc2nc(-c3cn4ncnc4c(CCCC(F)(F)F)n3)nc(O)c21 (stereo not drawn) [Example 181A, 4-hydroxy-5-(5-(difluoromethyl)pyridin-2-yl)-5-methyl-2-(8-(4,4,4-trifluorobutyl)-[1,2,4]triazolo[1,5-a]pyrazin-6-yl)-5H-pyrrolo[2,3-d]pyrimidin-6(7H)-one] | 749
4 | CC1(c2ccc(F)c(Cl)c2)C(=O)Nc2nc(-c3cn4ncnc4c(CCCC(F)(F)F)n3)nc(N)c21 (stereo not drawn) [Example 42B, 4-amino-5-(3-chloro-4-fluorophenyl)-5-methyl-2-(8-(4,4,4-trifluorobutyl)-[1,2,4]triazolo[1,5-a]pyrazin-6-yl)-5H-pyrrolo[2,3-d]pyrimidin-6(7H)-one] | 8.7
5 | Nc1nc(-c2cn3ncnc3c(CCCC(F)(F)F)n2)nc2c1C(c1ccc(C(F)(F)F)cc1)(C1CC1)C(=O)N2 (stereo not drawn) [Example 35A, 4-amino-5-cyclopropyl-2-(8-(4,4,4-trifluorobutyl)-[1,2,4]triazolo[1,5-a]pyrazin-6-yl)-5-(4-(trifluoromethyl)phenyl)-5H-pyrrolo[2,3-d]pyrimidin-6(7H)-one] | 416
6 | Nc1nc(-c2cn3ncnc3c(CCC(F)(F)C(F)(F)F)n2)nc2c1C(c1ccccn1)(C1CC1)C(=O)N2 (stereo not drawn) [Example 114A, 4-amino-5-cyclopropyl-2-(8-(3,3,4,4,4-pentafluorobutyl)-[1,2,4]triazolo[1,5-a]pyrazin-6-yl)-5-(pyridin-2-yl)-5,7-dihydro-6H-pyrrolo[2,3-d]pyrimidin-6-one] | 144
7 | Cc1ccc(C2(C)C(=O)Nc3nc(-c4cn5ncnc5c(CCC(F)(F)C(F)(F)F)n4)nc(O)c32)nc1 (stereo not drawn) [Example 130B, 4-hydroxy-5-methyl-5-(5-methylpyridin-2-yl)-2-(8-(3,3,3,4,4,4-pentafluorobutyl)-[1,2,4]triazolo[1,5-a]pyrazin-6-yl)-5H-pyrrolo[2,3-d]pyrimidin-6(7H)-one] | 503
8 | Nc1nc(-c2cn3ncnc3c(CCCC(F)(F)F)n2)nc2c1C(c1ccc(Cl)cn1)(C1CC1)C(=O)N2 (stereo not drawn) [Example 27A, 4-amino-5-(5-chloropyridin-2-yl)-5-cyclopropyl-2-(8-(4,4,4-trifluorobutyl)-[1,2,4]triazolo[1,5-a]pyrazin-6-yl)-5H-pyrrolo[2,3-d]pyrimidin-6(7H)-one] | 278
9 | C[C@@]1(c2ccc(F)cc2)C(=O)Nc2nc(-c3cn4ncnc4c(CCC(F)(F)F)n3)nc(O)c21 [Example 151A, (S)-5-(4-fluorophenyl)-4-hydroxy-5-methyl-2-(8-(3,3,3-trifluoropropyl)-[1,2,4]triazolo[1,5-a]pyrazin-6-yl)-5,7-dihydro-6H-pyrrolo[2,3-d]pyrimidin-6-one] | 1490
10 | Cc1nnc(C2(C)C(=O)Nc3nc(-c4cn5ncnc5c(CCC(F)(F)C(F)(F)F)n4)nc(N)c32)o1 (single isomer, unassigned) [Example 97B, 4-Amino-5-methyl-5-(5-methyl-1,3,4-oxadiazol-2-yl)-2-(8-(3,3,4,4,4-pentafluorobutyl)-[1,2,4]triazolo[1,5-a]pyrazin-6-yl)-5H-pyrrolo[2,3-d]pyrimidin-6(7H)-one] | 219
11 | CC1(c2ccccn2)C(=O)Nc2nc(-c3cn4ncnc4c(CCCC(F)(F)F)n3)nc(O)c21 (stereo not drawn) [Example 145B, 4-hydroxy-5-methyl-5-(pyridin-2-yl)-2-(8-(4,4,4-trifluorobutyl)-[1,2,4]triazolo[1,5-a]pyrazin-6-yl)-5H-pyrrolo[2,3-d]pyrimidin-6(7H)-one] | 1220

Continued by falling EC50, values first:

Row | EC50 [nM] | Compound
12 | 214 | CC1(c2ccc(F)c(Cl)c2)C(=O)Nc2nc(-c3cn4ncnc4c(CCCC(F)(F)F)n3)nc(O)c21 (stereo not drawn) [Example 147B, 5-(3-chloro-4-fluorophenyl)-4-hydroxy-5-methyl-2-(8-(4,4,4-trifluorobutyl)-[1,2,4]triazolo[1,5-a]pyrazin-6-yl)-5,7-dihydro-6H-pyrrolo[2,3-d]pyrimidin-6-one]
13 | 209 | CCCCc1nc(-c2nc(O)c3c(n2)NC(=O)C3(C)c2ccc(C(F)(F)F)cn2)cn2ncnc12 (stereo not drawn) [Example 159B, 2-(8-butyl-[1,2,4]triazolo[1,5-a]pyrazin-6-yl)-4-hydroxy-5-methyl-5-(5-(trifluoromethyl)pyridin-2-yl)-5H-pyrrolo[2,3-d]pyrimidin-6(7H)-one]
14 | 154 | CC1(c2ccc(Cl)cc2)C(=O)Nc2nc(-c3cn4ncnc4c(CCC(F)(F)F)n3)nc(N)c21 (stereo not drawn) [Example 76A, 4-amino-5-(4-chlorophenyl)-5-methyl-2-(8-(3,3,3-trifluoropropyl)-[1,2,4]triazolo[1,5-a]pyrazin-6-yl)-5H-pyrrolo[2,3-d]pyrimidin-6(7H)-one]
15 | 133 | CC1(c2ccc(Cl)cc2)C(=O)Nc2nc(-c3cn4ncnc4c(CCC(F)(F)F)n3)nc(O)c21 (stereo not drawn) [Example 152A, 5-(4-chlorophenyl)-4-hydroxy-5-methyl-2-(8-(3,3,3-trifluoropropyl)-[1,2,4]triazolo[1,5-a]pyrazin-6-yl)-5H-pyrrolo[2,3-d]pyrimidin-6(7H)-one]
16 | 128 | Nc1nc(-c2cn3ncnc3c(CCCC(F)(F)F)n2)nc2c1C(c1ccc(C(F)(F)F)cn1)(C1CC1)C(=O)N2 (single isomer, unassigned) [Example 2A, 4-Amino-5-cyclopropyl-2-(8-(4,4,4-trifluorobutyl)-[1,2,4]triazolo[1,5-a]pyrazin-6-yl)-5-(5-(trifluoromethyl)pyridin-2-yl)-5H-pyrrolo[2,3-d]pyrimidin-6(7H)-one]
17 | 102 | CCCCc1nc(-c2nc(O)c3c(n2)NC(=O)C3(C)c2ccc(F)c(F)c2)cn2ncnc12 (stereo not drawn) [Example 158B, 2-(8-butyl-[1,2,4]triazolo[1,5-a]pyrazin-6-yl)-5-(3,4-difluorophenyl)-4-hydroxy-5-methyl-5H-pyrrolo[2,3-d]pyrimidin-6(7H)-one]
18 | 41.8 | CCCCc1nc(-c2nc(N)c3c(n2)NC(=O)C3(c2ccc(C(F)(F)F)cn2)C2CC2)cn2ncnc12 (stereo not drawn) [Example 70A, 4-amino-2-(8-butyl-[1,2,4]triazolo[1,5-a]pyrazin-6-yl)-5-cyclopropyl-5-(5-(trifluoromethyl)pyridin-2-yl)-5H-pyrrolo[2,3-d]pyrimidin-6(7H)-one]
19 | 18.7 | CCCCc1nc(-c2nc(N)c3c(n2)NC(=O)C3(c2ccc(Cl)cn2)C2CC2)cn2ncnc12 (stereo not drawn) [Example 68A, 4-amino-2-(8-butyl-[1,2,4]triazolo[1,5-a]pyrazin-6-yl)-5-(5-chloropyridin-2-yl)-5-cyclopropyl-5H-pyrrolo[2,3-d]pyrimidin-6(7H)-one]
20 | 9.5 | CC1(c2ccccc2F)C(=O)Nc2nc(-c3cn4ncnc4c(CCC(F)(F)C(F)(F)F)n3)nc(O)c21 (stereo not drawn) [Example 170A, 5-(2-Fluorophenyl)-4-hydroxy-5-methyl-2-(8-(3,3,4,4,4-pentafluorobutyl)-[1,2,4]triazolo [1,5-a]pyrazin-6-yl)-5,7-dihydro-6H-pyrrolo [2,3-d]pyrimidin-6-one]

Same assay, conditions: CHO-K1/sGC cells, 1 hr at 37° C., cGMP by HTRF; presence or absence of 1 μM DETA-NO not given; read-out: % Act. (percent activation relative to maximum cGMP production of Compound A = 100%)

Row | Compound | Emax [%]
21 | CC1(c2ccc(Cl)cc2)C(=O)Nc2nc(-c3cn4ncnc4c(CCC(F)(F)F)n3)nc(O)c21 (stereo not drawn) [Example 152A, 5-(4-chlorophenyl)-4-hydroxy-5-methyl-2-(8-(3,3,3-trifluoropropyl)-[1,2,4]triazolo[1,5-a]pyrazin-6-yl)-5H-pyrrolo[2,3-d]pyrimidin-6(7H)-one] | 70
